From patent US11452682B2, “Toothpaste composition for alleviating dentin hyperesthesia” (HYSENSBIO, priority 2018, dated 2022)

test system: DSPP gene; assay: mRNA level of DSPP gene in MDPC-23 cells by RT-PCR and real-time PCR; type: cell-based, mouse; conditions: cultured 48 hours with peptide, relative ratio to mRNA level in untreated control, Gapdh internal control, repeated three times
Experimental: The MDPC-23 cells cultured in Example 2-1 were treated with the peptides of each group synthesized in Example 1, then cultured for 48 hours. The mRNA level of the DSPP, an odontoblast differentiation marker gene, expressed in the MDPC-23 cells were measured, and the measured mRNA level of each DSPP gene was converted into a relative ratio to the mRNA level of the DSPP gene measured in control (Tables 13 to 24). In addition, the average value of the mRNA level of the DSPP gene measured according to the peptides of each group was compared (FIG. 1B). At this time, as a control, MDPC-23 cells that were not treated with the peptide promoting differentiation of odontoblast were used.
The expression level of the DSPP gene was measured through RT-PCR and real-time PCR analysis: Specifically, total RNA was extracted from the MDPC-23 cells using TRIzol reagent. 2 μg of the total RNA, 1 μl of reverse transcriptase, and 0.5 μg of oligo (oligo; dT) were used to synthesize cDNA. The synthesized cDNA was used in a real-time polymerase chain reaction. The real-time polymerase chain reaction was performed on an ABI PRISM 7500 sequence detection system (Applied Biosystems) and an SYBR GREEN PCR Master Mix (Takara, Japan). The real-time polymerase chain reaction was performed under conditions of 94° C., 1 min; 95° C., 15 sec; 60° C., 34 sec for 40 cycles. Results were analyzed by a comparative cycle threshold (CT) method. At this time, the Gapdh gene was used as the internal control group, and the measured value was repeated three times. The mean value and standard deviation value thereof were used.

Substance	mRNA level of Dspp gene Mean
1 (KYQRRKKNKY; Novel peptide) [compound 1]	1.754
2 (KYQRRKRNKY; Novel peptide) [compound 2]	1.646
4 (KYQRRRRNKY; Novel peptide) [compound 4]	1.855
5 (KYQRKKKNKY; Novel peptide) [compound 5]	1.639
6 (KYQRKRKNKY; Novel peptide) [compound 6]	1.746
7 (KYQRKKRNKY; Novel peptide) [compound 7]	1.864
8 (KYQRKRRNKY; Novel peptide) [compound 8]	1.639
9 (KYQRRKKSKY; Novel peptide) [compound 9]	1.854
10 (KYQRRKRSKY; Novel peptide) [compound 10]	1.746
11 (KYQRRRKSKY; Novel peptide) [compound 11]	1.639
12 (KYQRRRRSKY; Novel peptide) [compound 12]	1.548
13 (KYQRKKKSKY; Novel peptide) [compound 13]	1.685
14 (KYQRKRKSKY; Novel peptide) [compound 14]	1.846
15 (KYQRKKRSKY; Novel peptide) [compound 15]	1.964
16 (KYQRKRRSKY; Novel peptide) [compound 16]	1.739
17 (KYQRRKKNYK; Novel peptide) [compound 17]	2.117
18 (KYQRRKRNYK; Novel peptide) [compound 18]	2.319
19 (KYQRRRKNYK; Novel peptide) [compound 19]	1.931
20 (KYQRRRRNYK; Novel peptide) [compound 20]	2.553
21 (KYQRKKKNYK; Novel peptide) [compound 21]	1.893
22 (KYQRKRKNYK; Novel peptide) [compound 22]	2.412
23 (KYQRKKRNYK; Novel peptide) [compound 23]	2.171
24 (KYQRKRRNYK; Novel peptide) [compound 24]	2.212
25 (KYQRRKKSYK; Novel peptide) [compound 25]	2.371

Substance	mRNA level of Dspp gene Mean
26 (KYQRRKRSYK; Novel peptide) [compound 26]	2.193
27 (KYQRRRKSYK; Novel peptide) [compound 27]	1.993
28 (KYQRRRRSYK; Novel peptide) [compound 28]	2.453
29 (KYQRKKKSYK; Novel peptide) [compound 29]	1.883
30 (KYQRKRKSYK; Novel peptide) [compound 30]	2.512
31 (KYQRKKRSYK; Novel peptide) [compound 31]	2.371
32 (KYQRKRRSYK; Novel peptide) [compound 32]	2.219
33 (KYRQRKKNKY; Novel peptide) [compound 33]	1.712
34 (KYRQRKRNKY; Novel peptide) [compound 34]	1.931
35 (KYRQRRKNKY; Novel peptide) [compound 35]	1.983
36 (KYRQRRRNKY; Novel peptide) [compound 36]	2.319
37 (KYRQKKKNKY; Novel peptide) [compound 37]	1.597
38 (KYRQKRKNKY; Novel peptide) [compound 38]	2.116
39 (KYRQKKRNKY; Novel peptide) [compound 39]	1.712
40 (KYRQKRRNKY; Novel peptide) [compound 40]	2.219
41 (KYRQRKKSKY; Novel peptide) [compound 41]	1.546
42 (KYRQRKRSKY; Novel peptide) [compound 42]	1.586
43 (KYRQRRKSKY; Novel peptide) [compound 43]	1.669
44 (KYRQRRRSKY; Novel peptide) [compound 44]	1.793
45 (KYRQKKKSKY; Novel peptide) [compound 45]	1.532
46 (KYRQKRKSKY; Novel peptide) [compound 46]	1.887
47 (KYRQKKRSKY; Novel peptide) [compound 47]	1.697
48 (KYRQKRRSKY; Novel peptide) [compound 48]	1.558
49 (KYRQRKKNYK; Novel peptide) [compound 49]	1.923

Substance	mRNA level of Dspp gene Mean
50 (KYRQRKRNYK; Novel peptide) [compound 50]	1.887
51 (KYRQRRKNYK; Novel peptide) [compound 51]	1.601
52 (KYRQRRRNYK; Novel peptide) [compound 52]	2.019
53 (KYRQKKKNYK; Novel peptide) [compound 53]	1.592
54 (KYRQKRKNYK; Novel peptide) [compound 54]	1.437
55 (KYRQKKRNYK; Novel peptide) [compound 55]	1.663
56 (KYRQKRRNYK; Novel peptide) [compound 56]	1.701
57 (KYRQRKKSYK; Novel peptide) [compound 57]	2.039
58 (KYRQRKRSYK; Novel peptide) [compound 58]	1.998
59 (KYRQRRKSYK; Novel peptide) [compound 59]	1.792
60 (KYRQRRRSYK; Novel peptide) [compound 60]	2.107
61 (KYRQKKKSYK; Novel peptide) [compound 61]	2.301
62 (KYRQKRKSYK; Novel peptide) [compound 62]	1.672
63 (KYRQKKRSYK; Novel peptide) [compound 63]	1.769
64 (KYRQKRRSYK; Novel peptide) [compound 64]	1.967
65 (KYKQRKKNKY; Novel peptide) [compound 65]	1.723
66 (KYKQRKRNKY; Novel peptide) [compound 66]	1.627
67 (KYKQRRKNKY; Novel peptide) [compound 67]	1.777
68 (KYKQRRRNKY; Novel peptide) [compound 68]	1.432
69 (KYKQKKKNKY; Novel peptide) [compound 69]	2.011
70 (KYKQKRKNKY; Novel peptide) [compound 70]	1.927
71 (KYKQKKRNKY; Novel peptide) [compound 71]	1.879
72 (KYKQKRRNKY; Novel peptide) [compound 72]	2.011
